Among the data in patent US12338219B2, “Antimalarial agents” (Merck Sharp & Dohme LLC, priority 2019, dated 2025) are EC50 values, retold here.

One may read the EC50 as the concentration giving half of the maximal effect. A high value points to lower potency in that assay.

One assay has as its system parasites (ring stage parasites, parasite growth). Kind of assay: Parasite LDH growth assay (Parasite Assay), antiparasite potency. Conditions: 72 h, 72 hours growth, LDH readout; Table 3. Type of assay: cell-based. In outline: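 Ring-stage culture was adjusted to 0.7% parasitemia and 2% haematocrit in bicarbonate-buffered RPMI-Hepes with heat-inactivated human serum and 0.5% albumax, then added to compound. Plates were incubated 72 h at 37 °C in gassed humidified boxes, frozen at −80 °C overnight and thawed, and growth was read by LDH assay.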
`CC[C@]1(C)CC(=O)N([C@@H](CCOC)[C@@H]2C[C@H]2C(=O)N[C@H]2C[C@H](C(F)(F)F)Oc3ccccc32)C(=N)N1` [Example 62A]: the 50% effective concentration (EC50) was 31 nM.

Regarding `CC[C@]1(C)CC(=O)N([C@H](CCOC)[C@@H]2C[C@H]2C(=O)N[C@H]2C[C@H](C(F)(F)F)Oc3ccccc32)C(=N)N1` [Example 62B], the EC50 was found to be 0.8 nM.

Take `COCC[C@H]([C@@H]1C[C@H]1C(=O)N[C@@H]1CC(C)(C)Oc2cc(OC)ccc21)N1C(=N)NC(C)(C)CC1=O` [Example 70A]: a half-maximal response (EC50) required 77 nM.

`COCC[C@H]([C@@H]1C[C@H]1C(=O)N[C@H]1CC(C)(C)Oc2cc(OC)ccc21)N1C(=N)NC(C)(C)CC1=O` [Example 70B] had an EC50 of 19 nM.

`CC1(C)CC(=O)N(C[C@@H]2C[C@H]2C(=O)N[C@H]2CC(C)(C)Oc3ccc(F)cc32)C(=N)N1` [Example 71] had an EC50 of 125 nM.

As to `COCC[C@H]([C@@H]1C[C@H]1C(=O)N[C@@H]1CC(C)(C)Oc2ccc(F)cc21)N1C(=N)NC(C)(C)CC1=O` [Example 72A], the EC50 was 11 nM. This EC50 lies about 11-fold lower than the previous one.

`COCC[C@H]([C@@H]1C[C@H]1C(=O)N[C@H]1CC(C)(C)Oc2ccc(F)cc21)N1C(=N)NC(C)(C)CC1=O` [Example 72B] had a concentration giving a half-maximal response (EC50) of 2.5 nM.

Take `COc1cccc2c1[C@@H](NC(=O)[C@@H]1C[C@H]1CN1C(=N)NC(C)(C)CC1=O)CC(C)(C)O2` [Example 73]: a half-maximal response (EC50) required 192 nM.

Take `COCC[C@H]([C@@H]1C[C@H]1C(=O)N[C@@H]1CC(C)(C)Oc2cccc(OC)c21)N1C(=N)NC(C)(C)CC1=O` [Example 74A]: the EC50 worked out at 33 nM.

Compound `COCC[C@H]([C@@H]1C[C@H]1C(=O)N[C@H]1CC(C)(C)Oc2cccc(OC)c21)N1C(=N)NC(C)(C)CC1=O` [Example 74B] had an EC50 of 3.1 nM.

As to `CCC1(C)CC(NC(=O)[C@@H]2C[C@H]2[C@@H](CCOC)N2C(=N)NC(C)(C)CC2=O)c2ccccc2O1` (some centres unmarked) [Example 75A], it took 8.2 nM to reach a half-maximal effect (EC50).

In turn, `COCC[C@H]([C@@H]1C[C@H]1C(=O)NC1CC(C)(C)Oc2cc(F)ccc21)N1C(=N)NC(C)(C)CC1=O` (some centres unmarked) [Example 76A] displayed a 50% effective concentration (EC50) of 17 nM.

In turn, `CC1(C)CC(=O)N([C@H](c2cccnc2)[C@@H]2C[C@H]2C(=O)NC2CC(C)(C)Oc3cc(F)ccc32)C(=N)N1` (some centres unmarked) [Example 77A] had a concentration for a half-maximal effect (EC50) of 1.7 nM.

`CCC1(C)C[C@H](NC(=O)[C@@H]2C[C@H]2CN2C(=N)NC(C)(C)CC2=O)c2ccccc2O1` (some centres unmarked) [Example 78] gave a 50% effective concentration (EC50) of 300 nM.

In turn, `CC(C)C1(C)CC(NC(=O)[C@@H]2C[C@H]2CN2C(=N)NC(C)(C)CC2=O)c2ccccc2O1` (some centres unmarked) [Example 79A] registered an EC50 of 255 nM. This EC50 and that of the compound before are within 1.5-fold of each other.

The compound `COCC[C@H]([C@@H]1C[C@H]1C(=O)N[C@H]1CC(C)(C)Oc2cc(C)ccc21)N1C(=N)NC(C)(C)CC1=O` [Example 83A] returned a concentration for a half-maximal effect (EC50) of 6.6 nM.

As to `COCC[C@H]([C@@H]1C[C@H]1C(=O)N[C@@H]1CC(C)(C)Oc2cc(C)ccc21)N1C(=N)NC(C)(C)CC1=O` [Example 83B], the EC50 came out at 26 nM.

On to `Cc1ccc2c(c1)OC(C)(C)C[C@@H]2NC(=O)[C@@H]1C[C@H]1CN1C(=N)NC(C)(C)CC1=O` [Example 84], for which it took 289 nM to reach a half-maximal effect (EC50). Compared with the last compound, the EC50 is about 11-fold higher.

Compound `Cc1ccc2c(c1)OC(C)(C)C[C@H]2NC(=O)[C@@H]1C[C@H]1[C@@H](c1cccnc1)N1C(=N)NC(C)(C)CC1=O` [Example 85A] came in with an EC50 of 2.4 nM.

As for `Cc1ccc2c(c1)OC(C)(C)C[C@@H]2NC(=O)[C@@H]1C[C@H]1[C@@H](c1cccnc1)N1C(=N)NC(C)(C)CC1=O` [Example 85B], the EC50 was determined as 0.9 nM.

Consider `CC1(C)CC(=O)N([C@H](c2cccnc2)[C@@H]2C[C@H]2C(=O)NC2CC(C)(C)Oc3cccc(F)c32)C(=N)N1` (some centres unmarked) [Example 86A], for which the concentration giving a half-maximal response (EC50) stood at 2.2 nM.

In the case of `CC1(C)CC(=O)N(C[C@@H]2C[C@H]2C(=O)N[C@H]2CC(C)(C)Oc3cccc(F)c32)C(=N)N1` [Example 87], the EC50 turned out to be 160 nM.

`COCC[C@H]([C@@H]1C[C@H]1C(=O)N[C@H]1CC(C)(C)Oc2cccc(F)c21)N1C(=N)NC(C)(C)CC1=O` [Example 88A]: the concentration giving a half-maximal response (EC50) was determined as 5.2 nM. Against the preceding compound, the EC50 is about 31-fold lower.

In turn, `COCC[C@H]([C@@H]1C[C@H]1C(=O)N[C@@H]1CC(C)(C)Oc2cccc(F)c21)N1C(=N)NC(C)(C)CC1=O` [Example 88B] came in with a 50% effective concentration (EC50) of 10 nM.

For `COCC[C@H]([C@@H]1C[C@H]1C(=O)N[C@H]1CC(C)(C)Oc2cc(Cl)ccc21)N1C(=N)NC(C)(C)CC1=O` [Example 89A], the 50% effective concentration (EC50) was 5.6 nM.

`COCC[C@H]([C@@H]1C[C@H]1C(=O)N[C@@H]1CC(C)(C)Oc2cc(Cl)ccc21)N1C(=N)NC(C)(C)CC1=O` [Example 89B] registered an EC50 of 22 nM.

As for `CC1(C)CC(=O)N(C[C@@H]2C[C@H]2C(=O)N[C@H]2CC(C)(C)Oc3cc(Cl)ccc32)C(=N)N1` [Example 90], the EC50 was found to be 225 nM.

Compound `CC1(C)CC(=O)N([C@H](c2cccnc2)[C@@H]2C[C@H]2C(=O)N[C@H]2CC(C)(C)Oc3cc(Cl)ccc32)C(=N)N1` [Example 91A] displayed an EC50 of 0.8 nM.

For the compound `CC1(C)CC(=O)N([C@H](c2cccnc2)[C@@H]2C[C@H]2C(=O)N[C@@H]2CC(C)(C)Oc3cc(Cl)ccc32)C(=N)N1` [Example 91B], it took 2.7 nM to reach a half-maximal effect (EC50). Compared with the last compound, the EC50 is about 3.4-fold higher.

As for `CCC1(CC)CC(NC(=O)[C@@H]2C[C@H]2[C@@H](CCOC)N2C(=N)NC(C)(C)CC2=O)c2ccccc2O1` (some centres unmarked) [Example 92A], the concentration giving a half-maximal response (EC50) amounted to 7.6 nM.

Compound `CC1(C)CC(=O)N([C@H](c2cccnc2)[C@@H]2C[C@H]2C(=O)NC2CC(C)(C)Oc3c(F)cccc32)C(=N)N1` (some centres unmarked) [Example 93A] had an EC50 of 3.3 nM.

As for `CC1(C)CC(=O)N([C@H](c2cccnc2)[C@@H]2C[C@H]2C(=O)NC2CC(C)(C)Oc3c(Cl)cc(Cl)cc32)C(=N)N1` (some centres unmarked) [Example 94A], the concentration giving a half-maximal response (EC50) was 0.9 nM.

In the case of `CC1(C)CC(=O)N(C[C@@H]2C[C@H]2C(=O)N[C@H]2CC(C)(C)Oc3ccc(Cl)cc32)C(=N)N1` [Example 95], the response was half-maximal at 110 nM (EC50).

Turning to `COc1cccc2c1C(NC(=O)[C@@H]1C[C@H]1[C@@H](c1cccnc1)N1C(=N)NC(C)(C)CC1=O)CC(C)(C)O2` (some centres unmarked) [Example 96A], the 50% effective concentration (EC50) was 2.7 nM.

Take `CC1(C)CC(=O)N(C[C@@H]2C[C@H]2C(=O)NC2CC(C)(C)Oc3c(Cl)cc(Cl)cc32)C(=N)N1` (some centres unmarked) [Example 97A]: the EC50 came out at 180 nM.

In the case of `CC1(C)CC(=O)N(C[C@@H]2C[C@H]2C(=O)N[C@H]2CC(C)(C)Oc3c(C(F)(F)F)ccc(F)c32)C(=N)N1` [Example 99], the concentration giving a half-maximal response (EC50) is 130 nM.

`CC1(C)CC(=O)N(C[C@@H]2C[C@H]2C(=O)N[C@H]2CC(C)(C)Oc3ccc(C(F)(F)F)cc32)C(=N)N1` [Example 100]: the concentration for a half-maximal effect (EC50) is 170 nM.

`COCC[C@H]([C@@H]1C[C@H]1C(=O)N[C@H]1CC(C)(C)Oc2ccc(Cl)cc21)N1C(=N)NC(C)(C)CC1=O` [Example 101] showed a concentration giving a half-maximal response (EC50) of 2.9 nM. Compared with the last compound, the EC50 is about 59-fold lower.

As for `CC[C@]1(C)CC(=O)N([C@H](c2cncc(F)c2)[C@@H]2C[C@H]2C(=O)N[C@@H]2c3ccccc3OCC2(C)C)C(=N)N1` [Example 102A], the concentration for a half-maximal effect (EC50) amounted to 0.8 nM.

Turning to `CC[C@]1(C)CC(=O)N([C@@H](c2cncc(F)c2)[C@@H]2C[C@H]2C(=O)N[C@@H]2c3ccccc3OCC2(C)C)C(=N)N1` [Example 102B], it took 2.5 nM to reach a half-maximal effect (EC50).

The compound `COCC[C@H]([C@@H]1C[C@H]1C(=O)NC1CC(C)(C)Oc2c(Cl)cc(Cl)cc21)N1C(=N)NC(C)(C)CC1=O` (some centres unmarked) [Example 106A] registered an EC50 of 7.4 nM.

For `COCC[C@H]([C@@H]1C[C@H]1C(=O)N[C@H]1CC(C)(C)Oc2cccc(OC(F)(F)F)c21)N1C(=N)NC(C)(C)CC1=O` [Example 107A], a half-maximal response (EC50) required 2.1 nM.

Consider `COCC[C@H]([C@@H]1C[C@H]1C(=O)N[C@@H]1CC(C)(C)Oc2cccc(OC(F)(F)F)c21)N1C(=N)NC(C)(C)CC1=O` [Example 107B], for which the EC50 is 11 nM.

In the case of `COCC[C@H]([C@@H]1C[C@H]1C(=O)N[C@@H]1CC(C)(C)Oc2ccc(C(F)(F)F)cc21)N1C(=N)NC(C)(C)CC1=O` [Example 110A], the midpoint of the response, the EC50, lay at 21 nM.

`COCC[C@H]([C@@H]1C[C@H]1C(=O)N[C@H]1CC(C)(C)Oc2ccc(C(F)(F)F)cc21)N1C(=N)NC(C)(C)CC1=O` [Example 110B] registered a concentration giving a half-maximal response (EC50) of 7.2 nM.

As for `COCC[C@H]([C@@H]1C[C@H]1C(=O)NC1CC(C)(C)Oc2c(F)cccc21)N1C(=N)NC(C)(C)CC1=O` (some centres unmarked) [Example 111A], the EC50 came to 24 nM.

For the compound `COCC[C@H]([C@@H]1C[C@H]1C(=O)NC1CC(C)(C)Oc2c(Cl)cccc21)N1C(=N)NC(C)(C)CC1=O` (some centres unmarked) [Example 112A], a half-maximal effect (EC50) was put at 18 nM.

The same assay, now with this note: 72 hours growth, LDH readout; Table 3.
Regarding `COCC[C@H]([C@@H]1C[C@H]1C(=O)NC1CC(C)(C)Oc2cc(F)ccc21)N1C(=N)NC(C)(C)CC1=O` (some centres unmarked) [Example 76B], the EC50 stood at 15 nM.

As for `CC1(C)CC(=O)N([C@H](c2cccnc2)[C@@H]2C[C@H]2C(=O)NC2CC(C)(C)Oc3cc(F)ccc32)C(=N)N1` (some centres unmarked) [Example 77B], the half-maximal effective concentration (EC50) was 2.3 nM.

With `CC1(C)CC(=O)N([C@H](c2cccnc2)[C@@H]2C[C@H]2C(=O)NC2CC(C)(C)Oc3cccc(F)c32)C(=N)N1` (some centres unmarked) [Example 86B], the EC50 is 2.8 nM.

`CCC1(CC)CC(NC(=O)[C@@H]2C[C@H]2[C@@H](CCOC)N2C(=N)NC(C)(C)CC2=O)c2ccccc2O1` (some centres unmarked) [Example 92B]: the EC50 came to 7.2 nM. This EC50 is about 2.6-fold higher than that of the compound before.

Compound `CC1(C)CC(=O)N([C@H](c2cccnc2)[C@@H]2C[C@H]2C(=O)NC2CC(C)(C)Oc3c(F)cccc32)C(=N)N1` (some centres unmarked) [Example 93B] gave a half-maximal effective concentration (EC50) of 2.4 nM. This EC50 lies about 3-fold lower than the previous one.

In turn, `COc1cccc2c1C(NC(=O)[C@@H]1C[C@H]1[C@@H](c1cccnc1)N1C(=N)NC(C)(C)CC1=O)CC(C)(C)O2` (some centres unmarked) [Example 96B] had an EC50 of 3.3 nM.

As to `CC1(C)CC(=O)N(C[C@@H]2C[C@H]2C(=O)NC2CC(C)(C)Oc3c(Cl)cc(Cl)cc32)C(=N)N1` (some centres unmarked) [Example 97B], the concentration giving a half-maximal response (EC50) worked out at 220 nM.

On to `COCC[C@H]([C@@H]1C[C@H]1C(=O)NC1CC(C)(C)Oc2c(Cl)cc(Cl)cc21)N1C(=N)NC(C)(C)CC1=O` (some centres unmarked) [Example 106B], for which the EC50 was 10 nM. This EC50 is about 22-fold lower than that of the compound before.

`COCC[C@H]([C@@H]1C[C@H]1C(=O)NC1CC(C)(C)Oc2c(F)cccc21)N1C(=N)NC(C)(C)CC1=O` (some centres unmarked) [Example 111B] came in with a 50% effective concentration (EC50) of 15 nM.
